Measured values: PMC11965169, “Flavin-containing siderophore-interacting protein of Shewanella putrefaciens DSM 9451 reveals common structural and functional aspects of ferric–siderophore reduction” (Journal of Biological Inorganic Chemistry, 2025)

Key:
[1] = biological target: T1, SbSIP (siderophore-interacting protein, flavin-containing siderophore reductase) (Shewanella bicestrii, UniProt A0A220UGT4); test: stopped-flow reduction of ferric siderophore by purified SbSIPsemi, […] nm; assay type: biochemical
T1 construct: gene CF168_00510

[2] = biological target: T2, SbSIP (siderophore-interacting protein, flavin-containing siderophore reductase) (Shewanella bicestrii, UniProt A0A220UGT4); test: X-ray crystal structure, […] Å; assay type: binding
T2 construct: gene CF168_00510; Trx-His10 tag-free SbSIP; chains A and B, residues 1-3/247-251 and 1-5/249-251 not modelled
T2 sequence (A0A220UGT4 1-250): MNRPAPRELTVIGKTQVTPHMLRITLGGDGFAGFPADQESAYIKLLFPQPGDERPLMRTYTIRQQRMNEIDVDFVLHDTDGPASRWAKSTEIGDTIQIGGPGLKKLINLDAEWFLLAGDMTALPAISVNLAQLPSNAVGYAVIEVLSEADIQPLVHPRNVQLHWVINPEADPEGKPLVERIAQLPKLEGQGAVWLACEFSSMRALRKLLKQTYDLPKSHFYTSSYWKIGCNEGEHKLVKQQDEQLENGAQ

[3] = biological target: T1, SbSIP (siderophore-interacting protein, flavin-containing siderophore reductase); test: […] NMR titration (slow exchange); assay type: binding
[4] = biological target: T1, SbSIP (siderophore-interacting protein, flavin-containing siderophore reductase); test: […] NMR titration (fast exchange, chemical shift perturbation); assay type: binding

## Fe(III)–putrebactin
[1]
  stopped-flow reduction of ferric siderophore by purified SbSIPsemi, 600 nm: 0.0031 ± 5 × 10^–5

## Cc1cc2nc3c(=O)[nH]c(=O)nc-3n(C[C@H](O)[C@H](O)[C@H](O)COP(=O)(O)OP(=O)(O)OC[C@H]3O[C@@H](n4cnc5c(N)ncnc54)[C@H](O)[C@@H]3O)c2cc1C [FAD]
[2]
  X-ray crystal structure, 1.86 Å: contained two SbSIP protein chains (A and B), each one bound to an FAD moiety

## Fe(III)–bisucaberin
[1]
  stopped-flow reduction of ferric siderophore by purified SbSIPsemi, 600 nm: 0.0014 ± 2 × 10^–4

## NC(=O)C1=CN([C@@H]2O[C@H](COP(=O)(O)OP(=O)(O)OC[C@H]3O[C@@H](n4cnc5c(N)ncnc54)[C@H](O)[C@@H]3O)[C@@H](O)[C@H]2O)C=CC1 [NADH]
[3]
  Kd: 17 ± 5 µM

## NC(=O)C1=CN([C@@H]2O[C@H](COP(=O)(O)OP(=O)(O)OC[C@H]3O[C@@H](n4cnc5c(N)ncnc54)[C@H](OP(=O)(O)O)[C@@H]3O)[C@@H](O)[C@H]2O)C=CC1 [NADPH]
[4]
  Kd: 107 ± 2 µM
